Measured values taken from PMC12112966 (2025).

What was measured:
Test in all cases: BLI, immobilised aptamer
[1] = test system: JD-3 (DNA, aptamer) ACTAGTGCAAATCTATTCCTATGTTACAGTGCCAATTTCA; settings: 2.7 mM KCl, 1.5 mM KH2PO4, 0.1 M NaCl, 20 mM Na2HPO4, 0.6 mM MgCl2, 0.9 mM CaCl2; selection buffer, pH 7.4; BLI response below 0.1 nm
[2] = test system: JD3-RMM1 (DNA, aptamer) ACTAGGGCAAATCTATACAGTGCCAATTTCA; settings: 2.7 mM KCl, 1.5 mM KH2PO4, 0.1 M NaCl, 20 mM Na2HPO4, 0.6 mM MgCl2, 0.9 mM CaCl2; selection buffer, pH 7.4; same concentration as AZA-2
[3] = test system: JD2-RM3-27C28T (DNA, aptamer) AAAAGACTTAGTGTTGTCCTATGTATCT; settings: 2.7 mM KCl, 1.5 mM KH2PO4, 0.1 M NaCl, 20 mM Na2HPO4, 0.6 mM MgCl2, 0.9 mM CaCl2; selection buffer, pH 7.4; same concentration as AZA-2
[4] = test system: JD-2 (DNA, aptamer) AAAAGACTTAGTGTTGTCCTATGTATAAGTGCCAATTTCA; settings: 2.7 mM KCl, 1.5 mM KH2PO4, 0.1 M NaCl, 20 mM Na2HPO4, 0.6 mM MgCl2, 0.9 mM CaCl2; selection buffer, pH 7.4; BLI response below 0.1 nm
[5] = test system: JD-1 (DNA, aptamer) GAATGGACCCGGTATAATTCCCTCAAGAGTGCCAATTTCA; settings: 2.7 mM KCl, 1.5 mM KH2PO4, 0.1 M NaCl, 20 mM Na2HPO4, 0.6 mM MgCl2, 0.9 mM CaCl2; selection buffer, pH 7.4; BLI response below 0.1 nm

binding [1]: no
binding [2]: no
binding [3]: no
binding [4]: no
binding [5]: no
Structure (SMILES): C=C1[C@@H](O)[C@@H]2O[C@]3(CC[C@H](/C=C/[C@@H](C)[C@@H]4CC(C)=C[C@@]5(O[C@H](C[C@@](C)(O)C(=O)O)CC[C@H]5O)O4)O3)CC[C@H]2O[C@@H]1[C@@H](O)C[C@H](C)[C@H]1O[C@@]2(CCCCO2)CC[C@H]1C
